The source of these data is patent US12103952B2, “Methods for expressing proteins in axons” (Cornell University, priority 2010, dated 2024).

This test has as its system E15 dissociated DRG neurons. Nature of the test: NGF-mediated retrograde survival in compartmented (Campenot) chambers, TUNEL assay. The format is cell-based, rat. The method, then:
FIGS. 2A-E are results showing that local protein synthesis in axons is required for NGF-dependent survival. (A) Phospho-4E-BP1 levels increase in growth cones in response to NGF treatment. DRG neurons were incubated with NGF-replete or NGF-free media; phospho-4E-BP1 levels in axons were measured by immunofluorescence. Scale bar, 50 μm. (B) Quantification of total and phospho-4EBP1 in (A) p=0.012. Numbers on bars represent n axons per condition. (C) Schematic diagram of compartmented (Campenot) chambers. E15 dissociated DRG neurons are cultured in the cell body compartment and axons grow under a thinly applied silicone grease layer that seals the chamber with the Permanox® plastic culture slide. (D) Application of protein synthesis inhibitors to axons blocks NGF-mediated retrograde survival. Dissociated DRG neurons were grown in compartmentalized chambers, and vehicle or NGF was added to the axon compartment. 1 μM cycloheximide (CHX) or 40 μM anisomycin (Aniso) were added to the axon compartment concurrently with NGF media. Cell body compartments were kept NGF-free during the course of the experiment. Cells crossing the divider were retrogradely labeled with WGA-Alexa555 and only WGA-positive cell bodies were counted in the data set. Survival was assessed by TUNEL assay. Examples of non-apoptotic and apoptotic are indicated with closed and open arrows, respectively (Blue=DAPI, Green=TUNEL). Scale bar, 20 μm. (E) Quantification of results from (D). *p<0.001. Numbers on bars represent n cells per condition.
Campenot chambers were modified for FISH and Immunofluorescence analysis as follows: Teflon dividers were applied to poly-D-lysine, laminin and collagen (1 mg/ml)-coated Lab-Tek chambers (NUNC). The low autofluorescence of the Permanox® plastic in these chambers allows us to perform fluorescence analyses on these cultures much more readily than is possible using traditional cell culture plasticware. E15 dissociated DRG neurons were plated in the cell body compartment in media containing 100 ng/ml NGF and 20 μM 5′-fluorodeoxyuridine to inhibit glial growth. Media was changed every 2 DIV and NGF concentration in the cell body compartment was halved at each media change. At DIV 5, when axons had crossed the divide into the axonal compartment, NGF was withdrawn from the cell body compartment and experimental media containing NGF (0 ng/ml or 30 ng/ml) and/or drug treatments/siRNA transfection reagents was applied to the axon compartment for a further 2 DIV. All media were completely replaced every subsequent 12 hours to ensure purity of the conditions in the respective compartments. […]

[1] abbreviates: axonal application together with NGF, 1 μM cycloheximide or 40 μM anisomycin, compared to NGF alone.

As for NGF: nerve growth factor, the DRG survival result (5 DIV compartmented cultures, NGF applied to either axons or cell bodies individually) is recorded as “capable of supporting DRG survival”. Also, where the note is “NGF applied exclusively to the axonal compartment, cell body compartment NGF-free, 48 hour, compared to vehicle-treated axons”, the neuronal survival result is on record as “significant increase in neuronal survival”.

As to `C[C@@H]1C[C@@H]([C@H](O)CC2CC(=O)NC(=O)C2)C(=O)[C@@H](C)C1` [cycloheximide], the neuronal survival entry under setting [1] is “significant reduction in survival”.

As to `COc1ccc(C[C@H]2NC[C@H](O)[C@H]2OC(C)=O)cc1` [anisomycin], the neuronal survival result under setting [1] was “significant reduction in survival”.
